Data reported in US20180179129A1, “SOLVENT COMPOSITIONS FOR USE AS HEXANE REPLACEMENTS” (TBF ENVIRONMENTAL TECHNOLOGY INC., priority 2015, published 2018).

How the values were obtained:
[1] = Performance test: solvency of G1652 resin; assay type: physicochemical; conditions: scale 1 = completely insoluble, 10 = completely soluble, >=6 soluble; 0.5 mL, ~20 mg resin, 22° C., 1 hour
Experimental: (§1) Several compounds were combined in different initial blends (Table 1). Standardized performance tests on solvency of a variety of resins, including (but not limited to) Kraton resins G1652, KR1164, KR1171, and G1726, Sukorez resin SU100S, and paraffin wax.
(§2) The performance tests on resins were performed as follows: The addition of 0.5 mL of each formulation to an individual screw-cap vial containing a stirbar and resin (G1652: ˜20 mg, SU100S: ˜40 mg, G1726: ˜25 mg, KR1164: ˜20 mg, KR1171, ˜20 mg, paraffin wax: ˜55 mg). The vials were tightly capped and solutions were stirred on a stirplate (400 rpm) at 22° C. for 1 hour. The stirbar was removed and solvency was observed, photos of the results were taken (Formulations 1-27, G1652 and SU100S). The odor of the blends was also tested empirically. Evaporation rates were calculated based on weight averages (% by volume) of individual components.

[2] = Performance test: solvency of SU100S resin; assay type: physicochemical; conditions: scale 1 = completely insoluble, 10 = completely soluble, >=6 soluble; 0.5 mL, ~40 mg resin, 22° C., 1 hour
Experimental: as §1, §2

[3] = cited from earlier work

Compound	G1652 solvency [1]	SU100S solvency [2]	stability ([3]; in the presence of strong aqueous bases or aqueous acids)	solubility in water ([3]; room temperature) [%]
FC(F)(F)c1ccc(Cl)cc1 [Formulation 26, para-chlorobenzotrifluoride]	10	10		
CCCCCC [Formulation 27, hexanes]	10	10		
COC(C)=O [Methyl acetate]			not stable	25
